Consider 9 molecules from PubChem BioAssay (NCI).

What all share (assay): NCI tumour cell line growth inhibition, 48 h
The test system of test [1] is NCI-H522 lung.
Test [2] relates to OVCAR-8 ovarian.
Test [3] has as its system SK-MEL-2 melanoma.
The test system of test [4] is A498 renal.
For test [5], the system named is OVCAR-4 ovarian.
The test system of test [6] is SF-295 CNS.
Test [7] deals with HOP-62 NSCLC.
Test [8] relates to M14 melanoma.

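Results reflect a 48-hour exposure of cells in 96-well plates to compound at five concentrations. GI50 is the concentration that inhibits growth by half. The concentration for full growth arrest is given as TGI.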

As to `O=C1NC(=NCCc2ccc(F)cc2)S/C1=C\c1ccc2ncccc2c1`, the GI50 in test [1], in test [2], in test [3], in test [4], in test [5] and in test [6] was more than 25 µM each time. In addition, the GI50 in test [7] and in test [8] was more than 25 µM throughout. The TGI in test [1], in test [2], in test [3], in test [4], in test [5] and in test [6] was more than 25 µM each time. Also, the TGI in test [7] and in test [8] was more than 25 µM each time.

As for `CCOC(=O)[C@@H](C)C[C@H](Cc1ccccc1)NC(=O)c1csc([C@@H](C[C@H](C(C)C)N(C)C(=O)[C@@H](NC(=O)[C@H]2CCCCN2C)C(C)(C)CC)OC(C)=O)n1`, the GI50 is less than 0.00167 µM in test [1]; 0.00231 µM in test [2]; less than 0.00167 µM in test [3]; less than 0.00167 µM in test [4]; 0.0146 µM in test [5]; less than 0.00167 µM in test [6]. The GI50 in test [7] was 0.00178 µM; in test [8] it was less than 0.00167 µM. The TGI is 0.0397 µM in test [1]; more than 16.7 µM in test [2]; more than 16.7 µM in test [3]; 0.0114 µM in test [4]; more than 16.7 µM in test [5]; 1.87 µM in test [6]. In addition, the results for the TGI in test [7] and in test [8] were more than 16.7 µM and 1.8 µM, respectively.

With `CC(C)=CCc1cc2c(cc1O)C1=C(C(=O)C3=C(C1=O)S(=O)(=O)CCN3)C(C=C(C)C)O2` (stereo unspecified), the GI50 in test [1] was 0.568 µM; in test [2], 0.552 µM; in test [3], 1.44 µM; in test [4], 3.54 µM; in test [5] it was 0.469 µM; in test [6] it was 2.38 µM. The values for the GI50 in test [7] and in test [8] were 2.33 µM and 0.35 µM, respectively. Further, the TGI in test [1] was determined as 1.85 µM; in test [2], 2.12 µM; in test [3] it was 5.29 µM; in test [4], 5.96 µM; in test [5], 2.44 µM; in test [6], 5.1 µM. Besides, the figures for the TGI in test [7] and in test [8] were 4.63 µM and 1.2 µM, respectively.

Turning to `O=C(O)C1=C/C(=C(/c2ccccc2)c2cc(C(=O)O)c(O)c3ccccc23)c2ccccc2C1=O`, the TGI in test [1], in test [2], in test [3], in test [4], in test [5] and in test [6] was more than 100 µM throughout. Besides, the TGI in test [7] and in test [8] was more than 100 µM in each case.

With `COc1ccc2c(c1)OC(N)=C(C#N)C2c1cc(OC)c(OC)c(OC)c1` (stereo unspecified), the GI50 in test [1] is 0.0194 µM; in test [2] it was 0.0355 µM; in test [3], 0.0321 µM; in test [4], 0.0222 µM; in test [5], 0.0714 µM; in test [6] it was 0.03 µM. In addition, the GI50 is 0.0548 µM in test [7] and 0.0336 µM in test [8]. The TGI in test [1] was 0.0631 µM; in test [2] it was more than 70.2 µM; in test [3], 0.151 µM; in test [4], 0.148 µM; in test [5] it was more than 100 µM; in test [6], more than 44.4 µM. Also, the figures for the TGI in test [7] and in test [8] were 33.2 µM and more than 100 µM, respectively.

With `NS(=O)(=O)c1ccc(Nc2cc(-c3ccc(O)c(F)c3)[nH]n2)cc1`, the GI50 is 13.9 µM in test [1]; 17.8 µM in test [2]; 11.4 µM in test [3]; more than 25 µM in test [4]; 8.8 µM in test [5]; more than 25 µM in test [6]. The GI50 in test [7] is more than 25 µM; in test [8], 15.4 µM. In addition, the TGI in test [1], in test [2], in test [3], in test [4], in test [5] and in test [6] was more than 25 µM in each case. The TGI in test [7] and in test [8] was more than 25 µM in each case.

`O=C(Nc1ccc(Oc2ccc(F)cc2)cc1)[C@@H]1C[C@@H](Cc2ccc(F)cc2)CN1C(=O)Cn1ccnn1`: the GI50 in test [1] was 5.01 µM; in test [2], 7.16 µM; in test [3], 8.05 µM; in test [4], 8.49 µM; in test [5] it was 6.29 µM; in test [6] it was 3.64 µM. Moreover, the GI50 was 12.3 µM in test [7] and 8.54 µM in test [8]. For the same molecule, the TGI in test [1] is 19.3 µM; in test [2], 31.9 µM; in test [3], 23 µM; in test [4], 27.9 µM; in test [5] it was more than 69.9 µM; in test [6], 14.2 µM. Besides, the TGI came out at 31.5 µM in test [7] and 25.7 µM in test [8].

As for `COc1cc2cc(Oc3ccc(NC(=O)Nc4cc(C(F)(F)F)cc(C(F)(F)F)c4)cc3)c(C)nc2cc1OCCN1CCOCC1`, the GI50 in test [1] was 1.63 µM; in test [2] it was 1.67 µM; in test [3] it was 1.74 µM; in test [4], 1.8 µM; in test [5], 1.88 µM; in test [6] it was 1.14 µM. In addition, the GI50 in test [7] was 2.2 µM; in test [8], 1.51 µM. In addition, the TGI was determined as 7.29 µM in test [1]; 12.8 µM in test [2]; 6.91 µM in test [3]; 6.69 µM in test [4]; 6.95 µM in test [5]; 2.92 µM in test [6]. The TGI was 9.16 µM in test [7] and 5.88 µM in test [8].

Take `C#Cc1cccc(Nc2ncnc3cc(NC(=O)CCl)ccc23)c1`: the GI50 is 0.414 µM in test [1]; 1.61 µM in test [2]; 3.82 µM in test [3]; 2.77 µM in test [4]; 2.16 µM in test [5]; 3.51 µM in test [6]. The results for the GI50 in test [7] and in test [8] were 3.22 µM and 2.56 µM, respectively. Also, the TGI in test [1] was 0.894 µM; in test [2] it was 6.58 µM; in test [3] it was 7.77 µM; in test [4], 7.28 µM; in test [5], 6.95 µM; in test [6], 6.95 µM. In addition, the TGI was 6.77 µM in test [7] and 6.4 µM in test [8].
